Tests used:
Assay in all cases: relative viability (nuclei count vs DMSO), 5 days (fraction); higher = more cells survive
Bosutinib + OSI-027 = compound: COc1cc(Nc2c(C#N)cnc3cc(OCCCN4CCN(C)CC4)c(OC)cc23)c(Cl)cc1Cl [Bosutinib] + COc1cccc2cc(-c3nc([C@H]4CC[C@H](C(=O)O)CC4)n4ncnc(N)c34)[nH]c12 [OSI-027] (partner 0.5 µM)
How it was run: (§1)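 Relative viability was taken as the ratio of nuclei in treated wells to nuclei in vehicle wells. Lung cancer cell lines in 1536-well plates received compounds by pin tool one day after seeding, either one drug alone or a fixed anchor-drug dose plus five library-drug doses (not always all listed) in √10 steps. Nuclei were counted on 4× images after 5 days of treatment, and values are medians of duplicate plates.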

Bosutinib + Phenformin = compound: COc1cc(Nc2c(C#N)cnc3cc(OCCCN4CCN(C)CC4)c(OC)cc23)c(Cl)cc1Cl [Bosutinib] + N=C(N)NC(=N)NCCc1ccccc1 [Phenformin] (partner 250 µM)
How it was run: as §1

Bosutinib + Foretinib = compound: COc1cc(Nc2c(C#N)cnc3cc(OCCCN4CCN(C)CC4)c(OC)cc23)c(Cl)cc1Cl [Bosutinib] + COc1cc2c(Oc3ccc(NC(=O)C4(C(=O)Nc5ccc(F)cc5)CC4)cc3F)ccnc2cc1OCCCN1CCOCC1 [Foretinib] (partner 0.25 µM)
How it was run: as §1

Bosutinib + Alpelisib = compound: COc1cc(Nc2c(C#N)cnc3cc(OCCCN4CCN(C)CC4)c(OC)cc23)c(Cl)cc1Cl [Bosutinib] + Cc1nc(NC(=O)N2CCC[C@H]2C(N)=O)sc1-c1ccnc(C(C)(C)C(F)(F)F)c1 [Alpelisib] (partner 2 µM)
How it was run: as §1

Bosutinib + Crizotinib = compound: COc1cc(Nc2c(C#N)cnc3cc(OCCCN4CCN(C)CC4)c(OC)cc23)c(Cl)cc1Cl [Bosutinib] + C[C@@H](Oc1cc(-c2cnn(C3CCNCC3)c2)cnc1N)c1c(Cl)ccc(F)c1Cl [Crizotinib] (partner 1 µM)
How it was run: as §1

| Cell Line | relative viability (Bosutinib + OSI-027; first compound 0.01 µM) | relative viability (Bosutinib + OSI-027; first compound 0.03162 µM) | relative viability (Bosutinib + OSI-027; first compound 0.1 µM) | relative viability (Bosutinib + OSI-027; first compound 1 µM) | relative viability (Bosutinib + Phenformin; first compound 0.01 µM) | relative viability (Bosutinib + Phenformin; first compound 0.03162 µM) | relative viability (Bosutinib + Phenformin; first compound 0.1 µM) | relative viability (Bosutinib + Phenformin; first compound 1 µM) | relative viability (Bosutinib + Foretinib; first compound 0.01 µM) | relative viability (Bosutinib + Foretinib; first compound 0.03162 µM) | relative viability (Bosutinib + Foretinib; first compound 0.1 µM) | relative viability (Bosutinib + Foretinib; first compound 1 µM) | relative viability (Bosutinib + Alpelisib; first compound 0.01 µM) | relative viability (Bosutinib + Alpelisib; first compound 0.03162 µM) | relative viability (Bosutinib + Alpelisib; first compound 0.1 µM) | relative viability (Bosutinib + Alpelisib; first compound 1 µM) | relative viability (Bosutinib + Crizotinib; first compound 0.01 µM) | relative viability (Bosutinib + Crizotinib; first compound 0.03162 µM) | relative viability (Bosutinib + Crizotinib; first compound 0.1 µM) | relative viability (Bosutinib + Crizotinib; first compound 1 µM) |
| --- | --- | --- | --- | --- | --- | --- | --- | --- | --- | --- | --- | --- | --- | --- | --- | --- | --- | --- | --- | --- |
| HCC-78 | 0.361 | 0.362 | 0.353 | 0.358 | 0.665 | 0.703 | 0.802 | 0.7 | 0.553 | 0.506 | 0.571 | 0.52 | 0.349 | 0.31 | 0.393 | 0.32 | 0.358 | 0.319 | 0.284 | 0.314 |
| HCC-366 | 0.981 | 0.898 | 0.821 | 0.405 | 0.63 | 0.61 | 0.555 | 0.53 | 0.884 | 0.97 | 0.971 | 0.879 | 0.532 | 0.416 | 0.305 | 0.111 | 0.59 | 0.6 | 0.516 | 0.316 |
| HCC-827 | 0.784 | 0.828 | 0.872 | 0.574 | 0.427 | 0.407 | 0.366 | 0.19 | 0.965 | 1.04 | 1.02 | 0.203 | 0.972 | 0.971 | 1.03 | 0.576 | 0.874 | 0.943 | 0.91 | 0.605 |
| HOP-62 | 0.801 | 0.848 | 0.942 | 0.875 | 0.699 | 0.706 | 0.65 | 0.741 | 1.11 | 0.965 | 1.13 | 1.12 | 0.977 | 1 | 1.1 | 0.889 | 0.897 | 0.949 | 0.964 | 0.986 |
| LC-2-ad | 0.878 | 0.917 | 0.806 | 0.847 | 0.659 | 0.549 | 0.577 | 0.694 | 0.982 | 0.979 | 0.948 | 0.61 | 0.883 | 0.975 | 0.92 | 0.864 | 0.449 | 0.473 | 0.445 | 0.539 |
| LCLC-97TM1 | 0.545 | 0.609 | 0.548 | 0.56 | 0.452 | 0.434 | 0.541 | 0.411 | 0.902 | 0.902 | 0.904 | 0.894 | 0.232 | 0.244 | 0.371 | 0.344 | 0.369 | 0.494 | 0.443 | 0.414 |
| LCLC-103H | 0.458 | 0.438 | 0.417 | 0.496 | 0.338 | 0.322 | 0.327 | 0.409 | 0.844 | 0.674 | 0.804 | 0.878 | 0.992 | 1.06 | 0.94 | 0.871 | 1.03 | 1.11 | 0.992 | 0.849 |
| LK-2 | 0.256 | 0.253 | 0.192 | 0.185 | 0.711 | 0.552 | 0.382 | 0.348 | 1.1 | 1.49 | 1.19 | 0.914 | 1.11 | 1.08 | 1.05 | 0.761 | 0.258 | 0.227 | 0.248 | 0.224 |
| LOU-NH91 | 0.742 | 0.707 | 0.728 | 0.51 | 0.717 | 0.699 | 0.636 | 0.497 | 0.912 | 0.929 | 0.845 | 0.538 | 0.807 | 0.7 | 0.638 | 0.46 | 0.737 | 0.723 | 0.707 | 0.49 |
| LU99A | 0.313 | 0.332 | 0.32 | 0.343 | 0.92 | 0.781 | 0.832 | 0.478 | 0.853 | 1.04 | 0.967 | 1.07 | 0.53 | 0.545 | 0.568 | 0.674 | 0.527 | 0.561 | 0.563 | 0.647 |
| LXF-289 | 0.765 | 0.849 | 0.823 | 0.898 | 0.508 | 0.515 | 0.521 | 0.514 | 0.926 | 1 | 0.979 | 0.913 | 1.03 | 0.986 | 1.01 | 1.06 | 0.829 | 0.823 | 0.79 | 0.898 |
| NCI-H522 | 0.734 | 0.641 | 0.682 | 0.69 | 0.657 | 0.623 | 0.63 | 0.613 |  |  |  |  |  |  |  |  |  |  |  |  |
| NCI-H1395 | 0.679 | 0.662 | 0.771 | 0.629 | 0.38 | 0.44 | 0.461 | 0.451 | 0.947 | 0.921 | 0.996 | 0.947 | 1.23 | 1.09 | 1.18 | 0.913 |  |  |  |  |
| NCI-H1650 | 0.734 | 0.6 | 0.444 | 0.41 | 0.434 | 0.344 | 0.339 | 0.318 | 0.917 | 1.09 | 0.862 | 0.599 |  |  |  |  | 0.921 | 0.989 | 0.908 | 0.496 |
| NCI-H1703 |  |  |  |  |  |  |  |  | 0.371 | 0.345 | 0.334 | 0.246 | 0.351 | 0.378 | 0.294 | 0.261 | 0.769 | 0.667 | 0.493 | 0.319 |
| NCI-H1792 | 0.692 | 0.706 | 0.751 | 0.688 | 0.256 | 0.254 | 0.327 | 0.251 |  |  |  |  | 0.774 | 0.677 | 0.757 | 0.505 | 0.984 | 0.978 | 0.981 | 1 |
| NCI-H1793 | 0.254 | 0.276 | 0.262 | 0.23 | 0.431 | 0.387 | 0.364 | 0.242 | 0.61 | 0.664 | 0.58 | 0.473 | 0.669 | 0.603 | 0.711 | 0.49 |  |  |  |  |
| NCI-H2342 | 0.634 | 0.669 | 0.702 | 0.718 | 0.565 | 0.68 | 0.56 | 0.643 | 0.903 | 0.994 | 0.999 | 1.05 |  |  |  |  |  |  |  |  |

From the supplement of paper PMC10307832
